Experiments:
[1] = molecular target: Tubulin alpha chain (Sus scrofa) (UniProt P02550); test: Tested for the reduction of the supernatant protein concentration by tubulin assembly assay; type: functional
[2] = Ratio between ED50 of compound and ED50 of taxol; type: functional

Sequence of Tubulin alpha chain (Sus scrofa) (P02550 whole entry, looked up): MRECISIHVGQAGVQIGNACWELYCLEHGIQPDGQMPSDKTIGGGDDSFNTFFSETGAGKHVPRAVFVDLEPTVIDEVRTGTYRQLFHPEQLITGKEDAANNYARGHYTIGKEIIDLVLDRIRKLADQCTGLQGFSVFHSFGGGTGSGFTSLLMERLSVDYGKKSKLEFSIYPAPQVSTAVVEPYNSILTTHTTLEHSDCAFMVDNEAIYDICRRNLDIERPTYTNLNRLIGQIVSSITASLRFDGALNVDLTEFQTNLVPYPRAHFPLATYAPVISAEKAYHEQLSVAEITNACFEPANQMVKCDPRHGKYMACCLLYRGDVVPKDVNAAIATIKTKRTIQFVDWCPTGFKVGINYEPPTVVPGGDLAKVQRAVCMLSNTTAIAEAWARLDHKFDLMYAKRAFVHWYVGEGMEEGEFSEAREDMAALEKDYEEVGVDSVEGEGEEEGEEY

Row | SMILES | ED50 [1] [µM] | Ratio [2]
1 | CC(=O)O[C@H]1C(=O)[C@@]2(C)[C@H]([C@H](OC(=O)c3ccccc3)[C@]3(O)C[C@H](OC(=O)[C@H](O)[C@@H](NC(=O)c4ccccc4)c4ccccc4)C(C)=C1C3(C)C)[C@]1(OC(C)=O)CO[C@@H]1C[C@@H]2O | 0.93 | 1
2 | CC(=O)O[C@@]12CO[C@@H]1C[C@H](O)[C@@]1(C)C(=O)[C@H](O)C3=C(C)[C@@H](OC(=O)[C@H](O)C(NC(=O)c4ccccc4)c4ccccc4)C[C@@](O)([C@@H](OC(=O)c4ccccc4)C12)C3(C)C (stereo partly specified) | > 25 | > 27
3 | CC(=O)O[C@@]12CO[C@@H]1C[C@H](O)[C@@]1(C)C(=O)[C@H](O)C3=C(C)[C@@H](OC(=O)[C@H](O)[C@@H](NC(=O)OC(C)(C)C)c4ccccc4)C[C@@](O)([C@@H](OC(=O)c4ccccc4)[C@H]21)C3(C)C | > 25 | > 27
